Assay results as given in article PMC6750098, “Mechanism of DNA Lesion Homing and Recognition by the Uvr Nucleotide Excision Repair System” (Research, 2019).

Columns and labels:
[1] = biological target: T1, UvrB (Δ594-658, domains 1a-3) ([Bacillus] caldotenax, UniProt P56981, C145S/C211S/T251C/C303S); test: X-ray crystal structure (UvrB-dsDNA-ADP·Pi); conditions: crystals grown with 2 mM ATP and 5 mM MgCl2, pH 6.5, 20 °C; protein disulfide-crosslinked to 20-mer dsDNA; ATP binding site; 2.6 Å
T1 construct: residues 1-593 (domain 4 deleted, Δ594-658), all native Cys to Ser, His-tag cleaved with TEV protease, expressed in E. coli BL21(DE3) pLysS, disulfide-crosslinked to duplex DNA
T1 sequence (P56981 1-593 C145S/C211S/T251C/C303S): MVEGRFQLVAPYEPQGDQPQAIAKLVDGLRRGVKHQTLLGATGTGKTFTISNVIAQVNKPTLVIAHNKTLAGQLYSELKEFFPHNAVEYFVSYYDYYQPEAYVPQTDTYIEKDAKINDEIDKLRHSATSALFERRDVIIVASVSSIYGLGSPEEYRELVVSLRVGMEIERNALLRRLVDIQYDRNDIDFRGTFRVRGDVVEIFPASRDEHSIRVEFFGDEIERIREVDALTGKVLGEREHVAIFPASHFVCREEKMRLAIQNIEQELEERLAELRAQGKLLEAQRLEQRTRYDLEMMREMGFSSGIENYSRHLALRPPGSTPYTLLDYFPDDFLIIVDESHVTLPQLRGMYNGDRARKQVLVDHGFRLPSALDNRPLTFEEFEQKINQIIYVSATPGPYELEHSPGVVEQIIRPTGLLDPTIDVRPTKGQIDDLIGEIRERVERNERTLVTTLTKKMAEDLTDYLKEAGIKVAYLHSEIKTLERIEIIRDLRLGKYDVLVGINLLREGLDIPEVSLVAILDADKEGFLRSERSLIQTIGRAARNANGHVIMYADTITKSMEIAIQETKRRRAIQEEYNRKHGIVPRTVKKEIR

[2] = biological target: T1, UvrB (Δ594-658, domains 1a-3); test: ATP hydrolysis in crystallo, seen in crystal structure; assay type: biochemical; conditions: 2 mM ATP, 5 mM MgCl2, pH 6.5, 20 °C; protein disulfide-crosslinked to 20-mer dsDNA

SMILES | X-ray crystal structure (UvrB-dsDNA-ADP.Pi) [1] | ATP hydrolysis in crystallo, seen in crystal structure [2]
Nc1ncnc2c1ncn2[C@@H]1O[C@H](COP(=O)(O)OP(=O)(O)O)[C@@H](O)[C@H]1O [ADP] | the electron density corresponds to ADP plus inorganic phosphate | –
Nc1ncnc2c1ncn2[C@@H]1O[C@H](COP(=O)(O)OP(=O)(O)OP(=O)(O)O)[C@@H](O)[C@H]1O [ATP] | – | hence we conclude that the ATPase site retains activity in our crosslinked complex
